Here are results for 1 compound from US11684606B2, “Methods of treating generalized pustular psoriasis with an antagonist of CCR6 or CXCR2” (CHEMOCENTRYX, INC., priority 2018, dated 2023).

In brackets after ≈: the same amount, converted by molar mass. Entries after “also recorded” stand apart in the source; their conditions may differ.

In general, IC90 refers to the concentration at which the effect reaches the 90% level. A word on the IC50: it is the concentration at which inhibition is half-maximal.

One assay has as its target T1, mCCR6 (Mus musculus, UniProt O54689).
T1 construct: expressed in transfected cells; host or cells: BaF3 cells
T1 sequence (O54689 1-367): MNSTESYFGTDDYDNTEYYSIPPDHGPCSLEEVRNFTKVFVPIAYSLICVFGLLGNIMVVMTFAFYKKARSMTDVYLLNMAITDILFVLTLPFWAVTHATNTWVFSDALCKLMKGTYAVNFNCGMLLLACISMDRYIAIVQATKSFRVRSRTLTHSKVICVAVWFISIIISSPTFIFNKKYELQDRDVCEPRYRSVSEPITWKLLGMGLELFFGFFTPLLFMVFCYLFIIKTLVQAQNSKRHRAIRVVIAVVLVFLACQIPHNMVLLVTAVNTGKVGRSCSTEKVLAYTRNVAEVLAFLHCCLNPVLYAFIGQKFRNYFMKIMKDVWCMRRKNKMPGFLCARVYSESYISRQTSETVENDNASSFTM
The assay is described as follows: In vitro inhibition of chemotaxis, mCCR6-transfected BaF3 cells to mCCL20. It is filed as cell-based. The following applies: in 100% serum. How it is done: For in vitro determination of chemokine receptor inhibitor activity, Compound 1.136 was dissolved in DMSO to generate a stock concentration of 10 mM that was further diluted in chemotaxis migration buffer (HBSS, 1% BSA, 1% HEPES) to create a 10-point inhibitor gradient ranging from 100 nM-0.01 nM. Migration assay was then run in 100% mouse serum in response to rmCCL20 for CCR6 activity or rmCXCL1 for CXCR2 activity using ChemoTx plates (Neuroprobe, Gaithersburg Md.) and assessed by fluorescence staining of migrated cells with CyQuant (Thermo Fisher).

The next assay concerns the target T2, mCCR1 (Mus musculus, UniProt P51675).
T2 construct: endogenous in cells; host or cells: mouse WEHI-274.1 cells (from the earlier reading's assay name)
T2 sequence (P51675 1-355): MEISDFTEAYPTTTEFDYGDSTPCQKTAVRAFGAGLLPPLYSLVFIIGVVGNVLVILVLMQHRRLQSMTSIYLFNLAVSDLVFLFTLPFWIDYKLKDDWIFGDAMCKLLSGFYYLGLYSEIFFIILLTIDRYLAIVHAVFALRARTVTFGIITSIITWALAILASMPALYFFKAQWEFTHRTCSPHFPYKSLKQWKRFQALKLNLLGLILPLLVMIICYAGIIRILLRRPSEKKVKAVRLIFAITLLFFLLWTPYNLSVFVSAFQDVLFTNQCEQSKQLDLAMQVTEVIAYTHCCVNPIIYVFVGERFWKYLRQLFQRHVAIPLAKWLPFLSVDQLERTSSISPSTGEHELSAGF
The experiment in a line: Chemotaxis of mouse WEHI-274.1 cells to mCCL3. It is filed as cell-based. The following applies: in serum; unit inferred.

Another assay has as its target T3, mCCR2 (Mus musculus, UniProt P51683).
T3 construct: endogenous in cells; host or cells: mouse bone marrow cells (from the earlier reading's assay name)
The experiment in a line: Chemotaxis of mouse bone marrow cells to mCCL2. It is filed as cell-based. The settings on record: in serum; unit inferred.

A further assay addresses T4, mCCR9 (Mus musculus, UniProt Q9WUT7).
T4 construct: endogenous in cells; host or cells: mouse thymocytes (from the earlier reading's assay name)
T4 sequence (Q9WUT7 1-369): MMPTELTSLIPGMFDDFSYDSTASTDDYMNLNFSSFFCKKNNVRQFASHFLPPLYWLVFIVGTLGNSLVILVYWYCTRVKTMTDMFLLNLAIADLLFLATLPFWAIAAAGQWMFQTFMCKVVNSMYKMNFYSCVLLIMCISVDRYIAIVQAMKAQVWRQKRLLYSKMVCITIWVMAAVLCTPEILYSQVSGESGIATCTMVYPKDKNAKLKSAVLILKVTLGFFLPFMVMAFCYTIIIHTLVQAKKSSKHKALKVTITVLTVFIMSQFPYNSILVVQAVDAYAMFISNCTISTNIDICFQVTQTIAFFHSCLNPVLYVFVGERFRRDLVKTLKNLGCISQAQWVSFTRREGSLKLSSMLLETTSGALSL
The assay is described as follows: Chemotaxis of mouse thymocytes to mCCL25. The format is cell-based. The settings on record: in serum; unit inferred.

Assay [1] deals with IL-36α-injected ears of Balb/c mice. The experiment in a line: Mouse model of IL-36-induced ear thickening (GPP model). It is filed as in vivo. How it is done: (§1) For in vivo dosing, mice were dosed subcutaneously with Compound 1.136 once daily (s.c. q.d. in 1% HPMC) at 90 mg/kg unless stated otherwise, starting at day 0 of a study. The in vivo dose was predicted based on in vitro potency and the pharmacokinetic response to a single dose in mice. The minimum antagonist concentration (at trough) to fully cover a gradient-sensing chemoattractant receptor has been determined to correspond with the IC90 concentration (Schall, T. J., and A. E. Proudfoot. 2011. Overcoming hurdles in developing successful drugs targeting chemokine receptors. Nat Rev Immunol 11: 355-363).
Mouse model of IL-36-induced ear thickening. The right ear of 8-week old Balb/c mice received intradermal injections of recombinant murine IL-36α (150 μg per mouse formulated in PBS; BioLegend) every day for 5 days. Intradermal injections of PBS were given to the left ear as a control. Ear thickness was measured prior to start of study and each day thoughout the study using a digital micrometer. The imiquimod model of psoriasiform dermatitis was performed as previously described (Campbell Jet al. J Immunol. 2017; 199(9):3129-36. van der Fits et al. J Immunol 2009; 182(9):5836-45). Briefly, 5% Imiquimod (Fougera®) was applied daily to the shaved and depilated backs of Balb/c mice for up to 4 days. Control mice were treated with an application of Vaseline. Erythema, desquamation, and skin thickening were scored independently on a scale from 0 to 4 where 0=no disease; 1=slight disease; 2=moderate disease; 3=marked disease; 4=very marked disease (Campbell J et al. J Immunol. 2017; 199(9):3129-36. van der Fits et al. J Immunol 2009; 182(9):5836-45). Skin from the backs of mice was excised at the end of the study and processed for flow cytometry analysis,
Mouse anti-IL-17RA. (R&D Systems) was dosed as a positive control at 200-500 μg per mouse, i.p., q.d.

Assay [2] shares this test system. The experiment in a line: H&E histology and epidermal thickness of IL-36α-injected ears. It is filed as in vivo, mouse. How it is done:
as §1
For hematoxylin and eosin (H&E) staining, ear tissue was initially fixed in paraformaldehyde for paraffin embedding. Samples were processed by standard procedures. Epidermal thickness was measured as the average of 7 measurements made along the center third (the area containing the lesion) of the length of the H&E stained ear sections using Photoshop CS4 software (Adobe®)

T3 sequence (P51683 whole entry): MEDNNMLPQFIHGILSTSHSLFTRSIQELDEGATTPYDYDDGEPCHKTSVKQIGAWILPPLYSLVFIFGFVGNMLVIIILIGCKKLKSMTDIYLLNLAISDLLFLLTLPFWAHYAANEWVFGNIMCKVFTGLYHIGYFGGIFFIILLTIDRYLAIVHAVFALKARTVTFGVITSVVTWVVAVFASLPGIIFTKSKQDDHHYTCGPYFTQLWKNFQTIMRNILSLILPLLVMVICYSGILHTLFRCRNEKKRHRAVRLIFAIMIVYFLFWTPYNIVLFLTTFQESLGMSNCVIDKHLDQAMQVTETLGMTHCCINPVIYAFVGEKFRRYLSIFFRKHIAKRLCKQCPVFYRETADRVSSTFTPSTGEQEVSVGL

Take `CCC(C)(C)[C@@H](Nc1c(Nc2c(F)ccc3c2C(=O)N[C@H]3C)c(=O)c1=O)c1ccc(C)o1` [Compound 1.136]: the IC90 on mCCR6 (BaF3, read-out: IC90 for CCR6 inhibition) amounted to 0.045 mg/L (≈ 0.102 µM). The IC50 was 0.01 µM on mCCR6 (read-out: IC50 on mouse CCR6, in vitro inhibition of chemotaxis); over 10 µM against mCCR1; over 10 µM against mCCR2; over 10 µM against mCCR9. Besides, the “Effectiveness at reducing ear swelling, Compound 1.136 compared with α-IL-17RA” value in assay [1] (90 mg/kg Compound 1.136 vs saturating dose of anti-IL-17RA MAb (500 μg per mouse per day), Mann-Whitney) is “significantly more effective than α-IL-17RA”. Also, the “Time course of the effect on ear thickness” value in assay [1] (Balb/c mice, daily intradermal IL-36α, Compound 1.136 s.c. once daily) was “appreciable after the second day of treatment”. Further, the “IL-36-induced ear thickening / ear swelling” value in assay [1] (Balb/c mice, daily intradermal IL-36α, ear thickness after 4 days, Compound 1.136 30-90 mg/kg s.c. q.d., anti-IL-17RA 200 or 500 μg per mouse IP daily) is given as “dose-dependent decreases in IL-36-induced ear thickening; also recorded: ameliorates inflammatory swelling of IL-36α-injected ears”. In addition, the IL-36α-mediated epidermal thickness result in assay [2] (H&E ear sections after 4 daily IL-36α treatments, Compound 1.136 90 mg/kg/day s.c., anti-IL17RA 200 μg/mouse/day IP, 90 mg/kg/day) is “significantly reduced IL-36α-mediated epidermal thickness; also recorded: substantially reduces epidermal thickness”. Moreover, the “Stratum corneum and leukocyte infiltration in histology” value in assay [2] (H&E sections after 4 days of treatment, Compound 1.136 90 mg/kg daily) is “the stratum corneum remained intact and leukocyte infiltration was reduced”. The “Histology of IL-36α-injected ears: dermal, epidermal and overall skin thickness” value in assay [2] (H&E sections after 4 days of treatment, Compound 1.136 90 mg/kg daily, 90 mg/kg) was “reduced IL-36α-induced dermal, epidermal and overall skin thickness; also recorded: substantially improves histology of IL-36α-injected ears”.
